*1 amine or outer side, *2 acyl side, *3 side chain or, on linkers, in order; H or OH if unused. Where a SMILES comes first, the peptide text is derived from it. Bridges are numbered along the chain shown (N, C = ends). [ ]: non-standard residue; d: D form. The star is where a group is joined. ξ: configuration not given here. X2 = O=C(C(N[*:1])c1ccc(OC2OC(CO)C(O)C(O)C2OC2OC(CO)C(O)C(O)C2O)cc1)[*:2]; Undeca(2Z,4E)dienoyl(10-Me) = CC(C)CCCC/C=C/C=C\C(=O)*; Octa(2Z,4E)dienoyl(7-Me) = CC(C)C/C=C/C=C\C(=O)*; X5 = O=C(C(N[*:1])c1cc(Cl)c(O)c(Cl)c1)[*:2]; ξPhg(3-Cl-4-OH) = NC(C(=O)O)c1ccc(O)c(Cl)c1; X1 = NC(=O)C(O[*:3])C(N[*:1])C(=O)[*:2]; X4 = N=C1NCC(CC(N[*:1])C(=O)[*:2])N1; Hpg = N[CH](C(=O)O)c1ccc(O)cc1; X3 = CCC(C)CCCC/C=C/C=C\C(=O)*; Cit = NC(=O)NCCC[CH](N)C(=O)O; Orn = NCCC[CH](N)C(=O)O; X6 = Cc1ccccc1CC(=O)*

Data on six compounds can be found in patent publication US20260199426A1, “CYCLIC LIPOPEPTIDE ANTIBIOTIC COMPOUNDS FOR USE IN THE TREATMENT OF PROTEIN AGGREGATION DISEASE” (DEUTSCHES ZENTRUM FÜR NEURODEGENERATIVE ERKRANKUNGEN E. V., priority 2022, published 2026).

The target in experiment [1] is N-terminally acetylated alpha-synuclein (Asyn) (Homo sapiens, UniProt P37840). Nature of the experiment: Seeded α-synuclein aggregation assay (ThT fluorescence, TEM). Type of experiment: biochemical. The following applies: for in vitro aggregation of alpha-synuclein (ThT fluorescence): 3-fold excess of compound, 25 μM Asyn monomers, 1% (v/v) fibril seeds, 37° C.; for Asyn fibril morphology (TEM) / Asyn oligomer formation (TEM): compound/Asyn mixtures. How it is done: (§1) (A, B) Thioflavin-T (ThT) fluorescence curves of N-terminally acetylated alpha-synuclein (Asyn) in the absence (cross) and presence of a 3-fold excess (white circles) of compound. […] Quantitative analysis of Asyn aggregation kinetics was performed by nonlinear regression with sigmoidal fitting to determine the midpoint value (Tm) of the fluorescence curve as well as the fluorescence span. Unpaired two-tailed t-test was performed to test the null hypothesis (p≤0.0332(*), p≤0.002(**), p≤0.0002 (***), p≤0.0001 (****)). […] (C) TEM imaging analysis of the compound/Asyn mixtures. Scale bars correspond to 200 nm.
as §1, with “ThT” for “Thioflavin-T (ThT)”, “circles or triangles)” for “circles)”
(A) ThT fluorescence curves of N-terminally acetylated alpha-synuclein (Asyn) in the absence (cross) and presence of a 3-fold excess (white circles) of compound. […] Quantitative analysis of Asyn aggregation kinetics was performed by nonlinear regression with sigmoidal fitting to determine the midpoint value (Tm) of the fluorescence curve as well as the fluorescence span.
Asyn protein stock solutions were prepared in 50 mM HEPES at pH 7.4 with 100 mM NaCl. Stocks of compounds were prepared in the same buffer (500 μM) or as 10 mM compound in DMSO. […] The microplate was likewise subjected to the incubation and fluorescence measurement program used in in vitro assay 1. After about 2-4 days of incubation, ThT fluorescence emission reached the maximal value and the Asyn fibril-containing mixture was collected as “fibril seed” mixture for subsequent Asyn aggregation experiments.

Experiment [2] relates to Tau aggregation in HEK biosensor cells (TauRD^LM-GFP). The following applies: induced by cell lysate containing Tau aggregates; 0.25 μM to 40 μM, 22 h, lipofectamine.
The target of experiment [3] is T1, amylin (human islet amyloid polypeptide or hIAPP) (Homo sapiens, UniProt P10997).
T1 construct: 5 μM amylin (human islet amyloid polypeptide or hIAPP) monomers
T1 sequence (P10997 34-70 limits assumed): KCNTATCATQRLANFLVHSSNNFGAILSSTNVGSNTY
Briefly: Amylin aggregation assay (ThT). Format: biochemical. The following applies: 5 μM hIAPP monomers, various doses, 37° C.

Experiment [4] addresses bovine serum albumin (BSA) (Bos taurus, UniProt P02769). The note with it: Shivani A et al. 2020; cited from earlier work.

Sequence of bovine serum albumin (BSA) (P02769 25-607): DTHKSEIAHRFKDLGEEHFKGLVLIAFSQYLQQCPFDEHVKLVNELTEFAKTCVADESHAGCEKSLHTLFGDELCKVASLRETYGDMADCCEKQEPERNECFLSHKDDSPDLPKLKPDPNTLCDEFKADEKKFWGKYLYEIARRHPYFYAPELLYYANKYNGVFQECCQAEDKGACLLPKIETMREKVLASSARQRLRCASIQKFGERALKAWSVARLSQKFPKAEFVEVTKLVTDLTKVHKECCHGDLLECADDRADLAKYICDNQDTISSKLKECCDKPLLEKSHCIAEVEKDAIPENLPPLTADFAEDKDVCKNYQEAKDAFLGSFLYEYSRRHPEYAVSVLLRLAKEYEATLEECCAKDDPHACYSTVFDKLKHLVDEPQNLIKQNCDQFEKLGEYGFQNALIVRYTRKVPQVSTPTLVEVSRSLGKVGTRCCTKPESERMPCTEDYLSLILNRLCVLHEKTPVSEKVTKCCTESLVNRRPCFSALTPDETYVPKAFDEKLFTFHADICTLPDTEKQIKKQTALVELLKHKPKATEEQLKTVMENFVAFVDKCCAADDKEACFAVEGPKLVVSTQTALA

With `CC(C)CCCC/C=C/C=C\C(=O)NC(CC(=O)O)C(=O)NC1C(=O)NC(c2ccc(O)cc2)C(=O)NC(CCCN)C(=O)NC(C(C)O)C(=O)NC(c2ccc(O)cc2)C(=O)NC(c2ccc(O)cc2)C(=O)NC(C(C)O)C(=O)NC(CCCNC(N)=O)C(=O)NC(CC2CNC(=N)N2)C(=O)NC(c2ccc(O)cc2)C(=O)NC(CO)C(=O)NC(c2cc(Cl)c(O)c(Cl)c2)C(=O)NCC(=O)NC(CC2CNC(=N)N2)C(=O)NC(C)C(=O)NC(c2ccc(O)cc2)C(=O)OC1C` (stereo not drawn) [Enduracidin A] ({Undeca(2Z,4E)dienoyl(10-Me)}-DT[Hpg][Orn]T[Hpg][Hpg]T[Cit][X4][Hpg]S[X5]G[X4]A[Hpg]; ester 2-C; configuration not given here), in experiment [1], the “in vitro aggregation of alpha-synuclein (ThT fluorescence)” value (“in vitro aggregation of alpha-synuclein” for short) is “inhibit the in vitro aggregation” and the “Asyn fibril morphology (TEM)” value is “shorter fibrils with a rougher surface”. Moreover, the “inhibition of seeded Tau aggregation” value in experiment [2] is recorded as “showed inhibition of seeded Tau aggregation”.

In the case of `CCC(C)CCCC/C=C/C=C\C(=O)NC(CC(=O)O)C(=O)NC1C(=O)NC(c2ccc(O)cc2)C(=O)NC(CCCN)C(=O)NC(C(C)O)C(=O)NC(c2ccc(O)cc2)C(=O)NC(c2ccc(O)cc2)C(=O)NC(C(C)O)C(=O)NC(CCCNC(N)=O)C(=O)NC(CC2CNC(=N)N2)C(=O)NC(c2ccc(O)cc2)C(=O)NC(CO)C(=O)NC(c2cc(Cl)c(O)c(Cl)c2)C(=O)NCC(=O)NC(CC2CNC(=N)N2)C(=O)NC(C)C(=O)NC(c2ccc(O)cc2)C(=O)OC1C` (stereo not drawn) [Enduracidin B] (X3-DT[Hpg][Orn]T[Hpg][Hpg]T[Cit][X4][Hpg]S[X5]G[X4]A[Hpg]; ester 2-C; configuration not given here), in experiment [1], the “in vitro aggregation of alpha-synuclein” value is reported as “inhibit the in vitro aggregation”, the “Asyn fibril morphology (TEM)” value is “shorter fibrils with a rougher surface” and the “Asyn oligomer formation (TEM)” value is “Asyn oligomer formation also competes with Asyn fibril formation”. Also, the “in vitro aggregation of amylin (final ThT fluorescence, t=50 h)” value in experiment [3] is “inhibit the in vitro aggregation of amylin”.

As to `Cc1ccccc1CC(=O)NC(CC(N)=O)C(=O)NC1C(=O)NC(c2ccc(O)cc2)C(=O)NC(CCCN)C(=O)NC(C(C)O)C(=O)NC(c2ccc(O)cc2)C(=O)NC(c2ccc(O)cc2)C(=O)NC(C(C)O)C(=O)NC(Cc2ccccc2)C(=O)NC(CCCN)C(=O)NC(c2ccc(OC3OC(CO)C(O)C(O)C3OC3OC(CO)C(O)C(O)C3O)cc2)C(=O)NC(C(C)O)C(=O)NC(c2ccc(O)cc2)C(=O)NCC(=O)NC(CC(C)C)C(=O)NC(C)C(=O)NC(c2ccc(O)c(Cl)c2)C(=O)OC1C(N)=O` (stereo not drawn) [NAI-603, Ramoplanin 2-methyl-phenyl derivative NAI-603] (X6-N[X1][Hpg][Orn]T[Hpg][Hpg]TF[Orn][X2]T[Hpg]GLA[ξPhg(3-Cl-4-OH)]; ester 2-C; configuration not given here), the “in vitro aggregation of amylin (final ThT fluorescence, t=50 h)” value in experiment [3] is “inhibit the in vitro aggregation of amylin”.

Take `CC(C)C/C=C/C=C\C(=O)NC(CC(N)=O)C(=O)NC1C(=O)NC(c2ccc(O)cc2)C(=O)NC(CCCN)C(=O)NC(C(C)O)C(=O)NC(c2ccc(O)cc2)C(=O)NC(c2ccc(O)cc2)C(=O)NC(C(C)O)C(=O)NC(Cc2ccccc2)C(=O)NC(CCCN)C(=O)NC(c2ccc(O)cc2)C(=O)NC(C(C)O)C(=O)NC(c2ccc(O)cc2)C(=O)NCC(=O)NC(CC(C)C)C(=O)NC(C)C(=O)NC(c2ccc(O)c(Cl)c2)C(=O)OC1C(N)=O` (stereo not drawn) [Ramoplanin A2 Aglycon, Ramoplanin aglycon] ({Octa(2Z,4E)dienoyl(7-Me)}-N[X1][Hpg][Orn]T[Hpg][Hpg]TF[Orn][Hpg]T[Hpg]GLA[ξPhg(3-Cl-4-OH)]; ester 2-C; configuration not given here): in experiment [1], the “in vitro aggregation of alpha-synuclein” value is recorded as “inhibit the in vitro aggregation” and the “Asyn oligomer formation (TEM)” value was “favors the formation of Asyn oligomers”.

On to `CNC(CC(C)C)C(=O)NC1C(=O)NC(CC(N)=O)C(=O)NC2C(=O)NC3C(=O)NC(C(=O)NC(C(=O)O)c4cc(O)cc(O)c4-c4cc3ccc4O)C(O)c3ccc(c(Cl)c3)Oc3cc2cc(c3OC2OC(CO)C(O)C(O)C2OC2CC(C)(N)C(O)C(C)O2)Oc2ccc(cc2Cl)C1O` (stereo not drawn) [Vancomycin, reference compound], for which the “inhibition of seeded Tau aggregation” value in experiment [2] was “showed inhibition of seeded Tau aggregation”.

On to Teicoplanin [reference compound], for which, in experiment [1], the “in vitro aggregation of alpha-synuclein” value is reported as “inhibits the in vitro aggregation” and the “Asyn oligomer formation (TEM)” value is “Asyn oligomer formation competes with Asyn fibril formation”. In addition, in experiment [4], the “aggregation of bovine serum albumin (BSA)” value is on record as “inhibition of the aggregation”. Moreover, in experiment [2], the “inhibition of seeded Tau aggregation” value is reported as “showed inhibition of seeded Tau aggregation”.
